Data taken from PMC4165007 (The Indian Journal of Medical Research, 2014).

Tests used:
[1] = target: pepsin (Sus scrofa, UniProt P00791); test: Digestion with simulated gastric fluid; type: in vitro ADME; settings: SGF pepsin, gastric pH, data not shown
[2] = oral; cited from earlier work
[3] = cited from earlier work
[4] = tested on: purified chymotrypsin; test: Incubation with purified chymotrypsin; type: in vitro ADME; settings: data not shown
[5] = sublingual; cited from earlier work
[6] = cited from earlier work; remark: listed apart in the source

pepsin, sequence (P00791 60-385): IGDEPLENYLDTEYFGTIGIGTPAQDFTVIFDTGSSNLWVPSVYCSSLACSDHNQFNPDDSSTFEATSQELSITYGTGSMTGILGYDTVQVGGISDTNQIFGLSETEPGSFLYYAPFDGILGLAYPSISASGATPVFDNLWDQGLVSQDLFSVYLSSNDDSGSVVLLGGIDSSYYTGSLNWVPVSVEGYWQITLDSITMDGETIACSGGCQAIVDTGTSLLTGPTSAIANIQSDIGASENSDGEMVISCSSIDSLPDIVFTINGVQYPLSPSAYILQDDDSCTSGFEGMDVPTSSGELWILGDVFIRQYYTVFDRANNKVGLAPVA

Row | OT hydrolysis on increasing the peptic digestion time to 12 h [1] | effect of incubation with purified chymotrypsin [4] | Compound | bioavailability, given orally to pigs [2] | stability during digestion with human gastric juice [3] | bioavailability, given sublingually in humans [5] | half-life of injected OT in the plasma [6] [min]
1 | did not result in OT hydrolysis | led to its hydrolysis | CC[C@H](C)[C@@H]1NC(=O)[C@H](Cc2ccc(O)cc2)NC(=O)[C@@H](N)CSSC[C@@H](C(=O)N2CCC[C@H]2C(=O)N[C@@H](CC(C)C)C(=O)NCC(N)=O)NC(=O)[C@H](CC(N)=O)NC(=O)[C@H](CCC(N)=O)NC1=O [OT, Oxytocin] | very poor | stable | very poor | 5 to 7
2 |  |  | arginine-vasopressin |  | stable |  | 
